# From article PMC12030059, “Mechanistic Advances in the Therapeutic Application of Bixin for Lung Inflammation In Vitro and In Vivo” (Pharmaceuticals, 2025)
# Tests used:
# [1] = ref C. Zhu et al. Eur. J. Med. Chem. 37 (2002) 399–407 [22], cited from earlier work
# [2] = PAMPA-GIT permeability assay; type: in vitro ADME; conditions: for Papp: read-out: Experimental Pe; for Experimental Fa: absorbed fraction; for Classification (intestinal permeability): by absorbed fraction
# Excerpt: The parallel artificial membrane permeability assay (PAMPA) utilizes a 96-well plate system in a “sandwich” format, where one plate is positioned above another (PAMPA). The upper plate, known as the donor compartment, contains the compounds (test or control) dissolved in a buffered solution. […] The lipid composition of the PVDF filter varies depending on the type of permeability test. For gastrointestinal tract (GIT) permeability assessments, L-α-soy phosphatidylcholine in dodecane is used. Optical density values are measured at specified wavelengths for each compound and compared against controls. For GIT permeability, the absorbed fraction (Fa%) and permeability (Pe) are determined. […] Compounds for these assays were diluted from a 10 mM stock solution. These assays were conducted using a 1 mg/mL stock solution per compound.
# [3] = L-α-soy phosphatidylcholine in dodecane
"Papp [2, 3] [×10⁻⁶ cm/s]",Experimental Fa [2] [%],Classification (intestinal permeability) [2],"Experimental Pe [2, 3]",Structure (SMILES),Literature Fa ([1]; absorbed fraction) [%],Literature Pe ([1]; artificial membrane permeability)
0.53,18.19,Low (low (0–29%)),–,"CO/N=C(\C(=O)N[C@@H]1C(=O)N2C(C(=O)O)=C(CSc3nc(=O)c(=O)[nH]n3C)CS[C@H]12)c1csc(N)n1 [Ceftriaxone, ceftriaxone]",1,0.1 10^−6 cm/s
25.2,99.99,High (high (70–100%)),–,"O=c1ccc2ccccc2o1 [Coumarin, coumarin]",–,–
–,12.64,–,0.36 10^−6 cm/s,"Nc1nc2c(ncn2COCCO)c(=O)[nH]1 [Acyclovir, acyclovir]",–,–
1.56,–,Medium (medium (30–69%)),–,"CCn1cc(C(=O)O)c(=O)c2cc(F)c(N3CCNCC3)cc21 [Norfloxacin, norfloxacin]",–,–
